Experimental data as given in patent US20100092389A1 (The General Hospital Corporation, priority 2008, published 2010).

Assays:
[1] = test system: iliac atherosclerotic plaques; experiment: Catheter-based NIRF sensing of ICG enhancement of atherosclerotic plaques; assay type: in vivo, rabbit; conditions: immediately after injection; 6 mg ICG in 1.2 mL
Experimental: White rabbits (weight 3-3.5 kg) underwent balloon-denudation of iliac arteries and hypercholsterolemic diet in order to develop inflamed atheromata. The rabbits were placed on a high-cholesterol diet (1% cholesterol and 5% peanut oil) for 1 week prior to balloon injury. After an overnight fast, anesthesia was induced with IM ketamine (35 mg/kg) and xylazine (5 mg/kg). Anesthesia was continued using inhaled isoflurane (1-5% v/v) and supplemental 02. Next a 3F Fogarty arterial embolectomy catheter was advanced into the common iliac vessels of the rabbits. The balloon was inflated to tension (0.6-1.0 ml). A total of 3 pullbacks were performed in the left and right iliac artery, as well as the infrarenal aorta. Following injury, the introducer was removed and the left carotid artery was ligated. Rabbits continued on the high-cholesterol diet for 4-8 weeks. […]
Anesthesia was initiated as above, and a 5F introducer was placed into the right carotid artery and then delivered to the descending thoracic aorta under fluoroscopic guidance. […] The maximum voltage was recorded from each digitized pullback. The in vivo plaque target-to-background ratio (TBR) was thus calculated as TBR=(maximum voltage detected from all pullbacks)/(background voltage). […]

plaque neovessels = experiment: Correlative fluorescence microscopy of atheromata sections; set-up: species or system rabbit; conditions: x200, FIG. 4(f)
Experimental: After imaging, vessels were immersed in 4% paraformaldehyde for 24 hours. Vascular rings were then frozen in an optical cutting temperature compound for histopathological analysis. Serial 5 micrometer cryosections of rabbit atheromata were cut. […] Tissue sections were viewed using a microscope and images were captured using a digital camera.

[2] = cited from earlier work
[3] = cited from earlier work; remark: listed apart in the source
[4] = test system: atherosclerotic plaques in the iliac and aorta; experiment: Ex vivo fluorescence reflectance imaging (FRI) of resected atherosclerotic aortoiliac vessels; set-up: species or system rabbit; conditions: excitation/emission 762 nm/800 nm
Experimental: Resected atherosclerotic aortoiliac vessels underwent fluorescence reflectance imaging (FRI) with an excitation/emission filter 762 nm/800 nm and a 5 second exposure time. Light images were also obtained with an exposure time of 100 msec. Region-of-interest (ROI) analysis was performed using visual identification of plaques and normal background on FRI images. The plaque target-to-background ratio was defined as: TBR=(plaque ROI signal)/(adjacent vessel background ROI signal).

[5] = in vivo; cited from earlier work

## CC1(C)C(/C=C/C=C/C=C/C=C2\N(CCCCS(=O)(=O)O)c3ccc4ccccc4c3C2(C)C)=[N+](CCCCS(=O)(=O)[O-])c2ccc3ccccc3c21 [ICG, Indocyanine green]
[1]
  NIRF signal, voltage recordings from the intravascular space of the iliac arteries: > 10 V
Plaque neovessels
  ICG signal in plaque neovessel by fluorescence microscopy: strong ICG signal in a plaque neovessel
[2]; bound to proteins
  time usable as intravascular angiographic agent: about 40 minutes
[2]; in vivo
  route of excretion: rapidly excreted unmetabolized into the bile
  time to elimination from the bloodstream: about 2 hours
[3]
  solubility in saline: not readily soluble in saline
[4]
  ex vivo plaque signal-to-background: very high plaque signal-to-background
[5]
  severe side effect incidence: less than 0.1%
